Measured values taken from US20180049996A1, “THERAPEUTIC AGENT FOR CHRONIC RESPIRATORY DISEASE AND COMPOSITION FOR INHIBITING CARDIAC FIBROSIS” (NIPPON HYPOX LABORATORIES INCORPORATED, priority 2015, published 2018).

Experiments:
IgE = test: Total content of IgE in serum, ovalbumin asthma model; assay type: in vivo, BALB/c female mice; conditions: day 25, compared to OVA group
Protocol: 6 week old BALB/c female mice were purchased and the mice were divided into 5 groups with 5 animals per group shown in Table 3 below after habituation breeding of about 2 weeks.
The test was conducted on the schedule of sensitization, causing diseases and administration of test materials shown in FIG. 12. “IP” in FIG. 12 refers to ovalbumin sensitization treatment by the intraperitoneal administration of ovalbumin/aluminum hydroxide, and “IH” refers to inhalation exposure treatment of ovalbumin, and “PO” refers to the administration of the test materials. Specifically, 200 μL of PBS (pH 7.4) emulsified by the addition of 20 μg ovalbumin and 2 mg aluminum hydroxide as an adjuvant was intraperitoneally administered to all mice in 4 groups except the normal control group (the initial sensitization, day 1 of the test). Then, after 2 weeks (day 14 of the test), the second sensitization treatment was conducted in the same way as the initial sensitization. […]
On day 25 of the test, the total contents of IgE and contents of ovalbumin-specific IgE in serums were measured using blood collected from orbital sinuses of the mice. An ELISA kit for IgE measurement (a product from BioLegend, Inc.) was used for the measurement and the contents were measured at wavelength of 450 nm using a micro plate reader (a product from Bio-Rad Laboratories, Inc.).

[1] = test system: Myocardial Disorder Induced by Doxorubicin; test: Histopathologic examination of the hearts (light microscope), myocardial disorder induced by doxorubicin; assay type: in vivo, female SD rats; conditions: for Severity score: Cell infiltration in interstitial tissue / Severity score: Degeneration of myocardial cells / Severity score: Loss and disorganization of myocardial fibers / Severity score: Loss of intercalated discs / Severity score: Loss of striations / Severity score: Vacuolation of myocardial fibers: Test group 2: doxorubicin 13 mg/kg + HTHQ 50 mg/kg; for lesions of cardiac tissue (light microscope): Test group 2: doxorubicin + HTHQ 50 mg/kg, compared to test group 1
Protocol: Doxorubicin is used to produce disease-model animals of cardiomyopathy. The doxorubicin and 2,3,5-trimethylhydroquinone-1-hexyl ether (HTHQ) as the hydroquinone derivative represented by the general formula (1) described above of the present invention were simultaneously administered to female SD rats of 4 week old after birth to examine the effect of the action. The test groups consisted of the control group to which sterile saline was administered; test group 1 to which doxorubicin (13 mg/kg body weight) alone was administered; test group 2 to which doxorubicin (13 mg/kg body weight) and HTHQ (50 mg/kg body weight) were administered in combination; and test group 3 to which doxorubicin (13 mg/kg body weight), HTHQ (50 mg/kg body weight) and recombinant human erythropoietin (400 IU/kg body weight) were administered in combination. […] The test group 3 is used to confirm the presence or absence of the inhibitory effect brought about by combining HTHQ and rHuEPO on myocardial disorder.
Doxorubicin was orally administered in a single dose to the rats in test groups 1 to 3. 2,3,5-trimethylhydroquinone-1-hexyl ether (HTHQ) was orally administered to the rats in test groups 2 and 3 twice in total: 3 days before the administration of doxorubicin and on the day of the administration. Recombinant human erythropoietin was daily administered to the rats in test group 3 starting from 3 days before the administration of doxorubicin by intravenous injection. The number of animals in each group was 16. 8 animals of each group were sacrificed after collecting blood on day 7 and 14 after the administration of doxorubicin, and the autopsy of the hearts, the calculation of the relative weights of the hearts, the histopathologic examination of the hearts and the hematological examination were conducted.
“−” indicates “not found”, “+” indicates “mild”, “++” indicates “moderate”, and “+++” indicates “severe” in severity scores of the table.

SMILES: CCCCCCOc1cc(C)c(O)c(C)c1C [HTHQ, 2,3,5-trimethylhydroquinone-1-hexyl ether]
- total amount of IgE in serum (IgE; HTHQ 20 mg/kg/day oral (HTHQ20)): significant reduction
- total amount of IgE in serum (IgE; HTHQ 40 mg/kg/day oral (HTHQ40)): a declining trend
- Severity score: Cell infiltration in interstitial tissue ([1]; Day 7 after administration): −
- Severity score: Degeneration of myocardial cells ([1]; Day 7 after administration): +
- Severity score: Loss and disorganization of myocardial fibers ([1]; Day 7 after administration): +
- Severity score: Loss of intercalated discs ([1]; Day 7 after administration): +
- Severity score: Loss of striations ([1]; Day 7 after administration): +
- Severity score: Vacuolation of myocardial fibers ([1]; Day 7 after administration): −
- Severity score: Cell infiltration in interstitial tissue ([1]; Day 14 after administration): −
- Severity score: Degeneration of myocardial cells ([1]; Day 14 after administration): +
- Severity score: Loss and disorganization of myocardial fibers ([1]; Day 14 after administration): +
- Severity score: Loss of intercalated discs ([1]; Day 14 after administration): +
- Severity score: Loss of striations ([1]; Day 14 after administration): +
- Severity score: Vacuolation of myocardial fibers ([1]; Day 14 after administration): +
- lesions of cardiac tissue (light microscope) ([1]; day 7): alleviated
- lesions of cardiac tissue (light microscope) ([1]; day 14): also alleviated
